Test systems include SNB-75 CNS; LXFL 529 NSCLC; M14 melanoma; A498 renal; SK-MEL-28 melanoma; OVCAR-8 ovarian; SR leukemia; SNB-78 CNS; SK-MEL-5 melanoma; NCI/ADR-RES ovarian.
Experiment in all cases: DTP human tumour cell line panel, 48 h

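Values below derive from 48-hour exposures of cells grown in 96-well plates, with endpoints linearly interpolated between the two concentrations bracketing the appropriate inhibition level. TGI is the concentration that stops growth completely.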

Turning to `O=C(NNC(=O)/C(=C/c1cccc([N+](=O)[O-])c1)NC(=O)c1ccccc1)Nc1ccc(Cl)cc1`, the TGI in the test with SNB-75 CNS was 36 µM; with LXFL 529 NSCLC it was 23.5 µM; in the test with M14 melanoma, 26.9 µM; with A498 renal it was 23.4 µM; with SK-MEL-28 melanoma, 30.8 µM; in the test with OVCAR-8 ovarian, 62.1 µM. The TGI is 28.1 µM in the test with SR leukemia, greater than 100 µM in the test on SNB-78 CNS and 25.7 µM in the test with SK-MEL-5 melanoma.

As to `Cc1cc(NCCCCCCCCNc2cc(C)nc3cc(N(C)C)ccc23)c2ccc(N(C)C)cc2n1`, the TGI in the test on LXFL 529 NSCLC came out at 16 µM; in the test with M14 melanoma, 21.4 µM; with A498 renal it was 42.6 µM; in the test with SK-MEL-28 melanoma, 4.48 µM; in the test with OVCAR-8 ovarian it was 38.2 µM; with SR leukemia, 43.9 µM. Also, the total growth inhibition concentration (TGI) in the test with SNB-78 CNS is greater than 100 µM.

Take `COc1ccc(/C=C2\CCC(C)(CN(C)C)C2=O)cc1Br` (stereo not drawn): the TGI was 76.3 µM with SNB-75 CNS; 31.8 µM in the test with LXFL 529 NSCLC; 35.1 µM with M14 melanoma; 50 µM in the test on A498 renal; 45.4 µM with SK-MEL-28 melanoma; 32.9 µM in the test with OVCAR-8 ovarian. The TGI in the test with SR leukemia came out at 45.7 µM; with SNB-78 CNS, 86 µM; in the test on NCI/ADR-RES ovarian, 43.2 µM; with SK-MEL-5 melanoma it was 28.3 µM.

For the compound `COC(=O)/C(=C1\OC(=O)C(c2ccc(Cl)cc2)=C1O)c1ccc(Cl)cc1`, the TGI with SNB-75 CNS is 73 µM; with LXFL 529 NSCLC, 87.7 µM; in the test on M14 melanoma, 97.5 µM; in the test with A498 renal, 47.8 µM; with SK-MEL-28 melanoma it was greater than 100 µM; in the test on OVCAR-8 ovarian it was greater than 100 µM. The TGI in the test on SR leukemia was 80.9 µM; with SNB-78 CNS, greater than 100 µM.

For the compound `Clc1cc2ns[s+]c2cc1Cl`, the TGI with SNB-75 CNS was greater than 64.2 µM; in the test on LXFL 529 NSCLC it was greater than 100 µM; with M14 melanoma, greater than 100 µM; in the test on A498 renal it was greater than 100 µM; in the test with SK-MEL-28 melanoma, greater than 100 µM; in the test with OVCAR-8 ovarian, greater than 100 µM. In addition, the figures for the TGI in the test on SR leukemia, in the test with SNB-78 CNS and in the test with SK-MEL-5 melanoma were greater than 100 µM, greater than 100 µM and greater than 52 µM, respectively.

Consider `CCn1c(C)nc([N+](=O)[O-])c1Sc1ncc[nH]1`, for which the TGI in the test with SNB-75 CNS, with LXFL 529 NSCLC, with M14 melanoma, in the test with A498 renal, with SK-MEL-28 melanoma and with OVCAR-8 ovarian was greater than 100 µM throughout. In addition, the TGI with SR leukemia, in the test with SNB-78 CNS and with SK-MEL-5 melanoma was greater than 100 µM throughout.

In the case of `COc1ccc(NC(=O)CC2SC(=Nc3ccc(Cl)cc3C)NC2=O)c([N+](=O)[O-])c1` (stereo not drawn), the total growth inhibition concentration (TGI) in the test with SNB-75 CNS, in the test on LXFL 529 NSCLC, in the test on M14 melanoma, with A498 renal, in the test with SK-MEL-28 melanoma and with OVCAR-8 ovarian was greater than 100 µM each time. For the same compound, the TGI in the test on SR leukemia, in the test with SNB-78 CNS and in the test on SK-MEL-5 melanoma was greater than 100 µM throughout.

For `Cc1c2cc[n+](C)cc2c(C)c2c1[nH]c1ccc(OC(C)(C)C)cc12`, the TGI with SNB-75 CNS, in the test with LXFL 529 NSCLC, in the test on M14 melanoma, with A498 renal, with SK-MEL-28 melanoma and in the test with OVCAR-8 ovarian was greater than 100 µM throughout. Further, the concentration for total growth inhibition (TGI) in the test on SR leukemia, in the test with SNB-78 CNS and in the test on SK-MEL-5 melanoma was greater than 100 µM each time.

In the case of `O=Cc1cc2sc(C=O)cc2s1`, the TGI with SNB-75 CNS was greater than 100 µM; in the test with LXFL 529 NSCLC, greater than 100 µM; with M14 melanoma it was greater than 100 µM; in the test on A498 renal it was 34.3 µM; in the test with OVCAR-8 ovarian it was greater than 100 µM; in the test on SR leukemia it was greater than 100 µM. Moreover, the TGI in the test with SNB-78 CNS and in the test with SK-MEL-5 melanoma was greater than 100 µM throughout.

For `O=S(=O)(O)c1ccc([Se][Se]c2ccc(S(=O)(=O)O)cc2)cc1`, the TGI with SNB-75 CNS, with LXFL 529 NSCLC, in the test with M14 melanoma, with A498 renal, with SK-MEL-28 melanoma and with OVCAR-8 ovarian was greater than 100 µM in each case. The TGI in the test on SR leukemia is 96.6 µM; in the test on SNB-78 CNS it was greater than 100 µM; in the test with SK-MEL-5 melanoma it was greater than 100 µM.

`O=C1/C(=C/c2ccc(C(=O)O)cc2)CNC/C1=C\c1ccc(C(=O)O)cc1`: the TGI with SNB-75 CNS, in the test with LXFL 529 NSCLC, in the test on M14 melanoma, in the test on A498 renal, in the test with SK-MEL-28 melanoma and in the test on OVCAR-8 ovarian was greater than 100 µM throughout. In addition, the total growth inhibition concentration (TGI) in the test on SR leukemia, with SNB-78 CNS and in the test on SK-MEL-5 melanoma was greater than 100 µM in each case.

As to `COc1ccc(C2[C@@H](Cl)C(=O)N2c2ccc(OC)cc2)cc1` (stereo partly drawn), the total growth inhibition concentration (TGI) in the test with SNB-75 CNS was 64.1 µM; in the test with LXFL 529 NSCLC it was greater than 100 µM; in the test with A498 renal it was greater than 100 µM; in the test with SK-MEL-28 melanoma it was greater than 100 µM; in the test with OVCAR-8 ovarian, greater than 100 µM; in the test on SR leukemia, greater than 100 µM. The TGI in the test with SNB-78 CNS and in the test on SK-MEL-5 melanoma was greater than 100 µM each time.

`C/C(COc1ccccc1)=N\NC(N)=S`: the TGI with SNB-75 CNS, with LXFL 529 NSCLC, with M14 melanoma, in the test on A498 renal, in the test on SK-MEL-28 melanoma and in the test on OVCAR-8 ovarian was greater than 100 µM throughout. Moreover, the total growth inhibition concentration (TGI) in the test on SR leukemia, with SNB-78 CNS and in the test on SK-MEL-5 melanoma was greater than 100 µM throughout.

In the case of `NC1=NN(c2ccccc2)C(=O)C1/C(=N\NC(=O)c1cc2ccccc2cc1O)C(=O)Nc1ccc(Cl)c(Cl)c1` (stereo not drawn), the TGI in the test with SNB-75 CNS is greater than 100 µM; in the test with LXFL 529 NSCLC, greater than 100 µM; with M14 melanoma, 72.5 µM; in the test with A498 renal, greater than 100 µM; with SK-MEL-28 melanoma it was greater than 100 µM; in the test with OVCAR-8 ovarian it was greater than 100 µM. Besides, the TGI was 5.71 µM with SR leukemia, greater than 100 µM in the test on SNB-78 CNS and 79.4 µM in the test with SK-MEL-5 melanoma.

For the compound `CN1C(=O)CC(CC(=O)C2CCCCC2=O)CC1=O` (stereo not drawn), the TGI with SNB-75 CNS, with LXFL 529 NSCLC, in the test with M14 melanoma, with A498 renal, with SK-MEL-28 melanoma and in the test on OVCAR-8 ovarian was greater than 100 µM each time. Besides, the TGI in the test with SR leukemia and with SNB-78 CNS was greater than 100 µM throughout.

As to `OCC1OC(NO)C(O)C(O)C1O` (stereo not drawn), the TGI in the test with LXFL 529 NSCLC, in the test with M14 melanoma, in the test on A498 renal, in the test with SK-MEL-28 melanoma, with OVCAR-8 ovarian and in the test with SR leukemia was greater than 100 µM in each case. Further, the TGI with SNB-78 CNS and in the test on SK-MEL-5 melanoma was greater than 100 µM each time.

(Values after PubChem BioAssay (NCI).)
